Measured values published in US10799605B2 (3B PHARMACEUTICALS GMBH, priority 2014, dated 2020).
Read-outs that look alike come from different tables or passages of the source.

What was measured:
MT1 (ML1A) (h) = MT1 (ML1A) (h) (Homo sapiens (Human), UniProt P48039); assay: ExpresSProfile: melatonin receptor 1, agonist radioligand; assay type: binding; settings: Test Concentration 1.0E−05 M
ETA (h) = ETA (h) (Homo sapiens (Human), UniProt P25101); assay: ExpresSProfile: endothelin receptor A, agonist radioligand; assay type: binding; settings: Test Concentration 1.0E−05 M
H1 (h) = H1 (h) (Homo sapiens (Human), UniProt P35367); assay: ExpresSProfile: histamine receptor 1, antagonist radioligand; assay type: binding; settings: Test Concentration 1.0E−05 M
M3 (h) = M3 (h) (Homo sapiens (Human), UniProt P20309); assay: ExpresSProfile: muscarinic receptor 3, antagonist radioligand; assay type: binding; settings: Test Concentration 1.0E−05 M
beta 2 (h) = beta 2 (h) (Homo sapiens (Human), UniProt P07550); assay: ExpresSProfile: beta2 adrenergic receptor, agonist radioligand; assay type: binding; settings: Test Concentration 1.0E−05 M
Cl-channel (GABA-gated) = assay: ExpresSProfile: Cl-channel, antagonist radioligand; assay type: binding; settings: Test Concentration 1.0E−05 M
VPAC1 (VIP1) (h) = VPAC1 (VIP1) (h) (Homo sapiens (Human), UniProt P32241); assay: ExpresSProfile: vasoactive intestinal polypeptide receptor 1, agonist radioligand; assay type: binding; settings: Test Concentration 1.0E−05 M
EP4 (h) = EP4 (h) (Homo sapiens (Human), UniProt P35408); assay: ExpresSProfile: prostaglandin e receptor type 4, agonist radioligand; assay type: binding; settings: Test Concentration 1.0E−05 M
MC4 (h) = MC4 (h) (Homo sapiens (Human), UniProt P32245); assay: ExpresSProfile: melanocortin receptor 4, agonist radioligand; assay type: binding; settings: Test Concentration 1.0E−05 M
CCK1 (CCKA) (h) = CCK1 (CCKA) (h) (Homo sapiens (Human), UniProt P32238); assay: ExpresSProfile: cholecystokinin receptor 1, agonist radioligand; assay type: binding; settings: Test Concentration 1.0E−05 M
beta 1 (h) = beta 1 (h) (Homo sapiens (Human), UniProt P08588); assay: ExpresSProfile: beta1 adrenergic receptor, agonist radioligand; assay type: binding; settings: Test Concentration 1.0E−05 M
NK3 (h) = NK3 (h) (Homo sapiens (Human), UniProt P29371); assay: ExpresSProfile: neurokinin receptor 3, antagonist radioligand; assay type: binding; settings: Test Concentration 1.0E−05 M
5-HT2A (h) = 5-HT2A (h) (Homo sapiens (Human), UniProt P28223); assay: ExpresSProfile: 5-hydroxytryptamine receptor 2A, antagonist radioligand; assay type: binding; settings: Test Concentration 1.0E−05 M
D2S (h) = D2S (h) (Homo sapiens (Human), UniProt P14416); assay: ExpresSProfile: dopamine receptor 2S, antagonist radioligand; assay type: binding; settings: Test Concentration 1.0E−05 M
[1] = Plasma protein binding assay, human; assay type: in vitro ADME; settings: plasma proteins, 4 h at 37° C., equilibrium dialysis, read-out: % bound [human]
From the text: A drug's efficiency may be affected by the degree to which it binds to the proteins within blood plasma. A drug in blood exists in two forms: bound and unbound. Depending on a specific drug's affinity for plasma protein, a proportion of the drug may become bound to plasma proteins, with the remainder being unbound. […] It is also the fraction that may be metabolized and/or excreted. Protein binding can influence the drug's biological half-life in the body. The bound portion may act as a reservoir or depot from which the drug is slowly released as the unbound form. In order to determine the binding characteristics of the compounds of the present invention as listed in the following Table to human or mouse plasma protein, respectively, a plasma protein binding assay was carried out. All compounds have a plasma protein binding that is appropriate for diagnostic, therapeutic and theranostic use of these compounds according to the present invention.
The binding of test substances to human and murine plasma proteins was tested by Cerep (Celle l'Evescault, France; Catalog reference 2194 [human] and 2223 [mouse]) according to Banker et al., J. Pharm. Sci., 2003, 92, 967-974. Test compounds were incubated with human or murine plasma proteins for 4 h at 37° C. Subsequently, the fraction of compound bound to plasma proteins was determined by equilibrium dialysis and HPLC-MS/MS detection. […]

alpha 1 (non-selective) = assay: ExpresSProfile: alpha1 adrenergic receptor, antagonist radioligand; assay type: binding; settings: Test Concentration 1.0E−05 M
[2] = system: GPCRs, ion channels, and transporter proteins; assay: Specificity screening (ExpresSProfile), whole panel; assay type: binding; settings: 10^−5 M
Experimental: The specificity screening was carried out in order to test for unspecific binding of compounds of the present invention. The specificity for NTR1 was tested using a standard battery of assays (“ExpresSProfile”) comprising 55 assays on GPCRs, ion channels, and transporter proteins. This assay was performed by Cerep (Celle l'Evescault, France; Catalog reference P1).
Unspecific binding according to this specificity screening is observed if Inhibition of Control Specific Binding is above 50%.

M1 (h) = M1 (h) (Homo sapiens (Human), UniProt P11229); assay: ExpresSProfile: muscarinic receptor 1, antagonist radioligand; assay type: binding; settings: Test Concentration 1.0E−05 M
delta 2 (DOP) (h) = delta 2 (DOP) (h) (Homo sapiens (Human), UniProt P41143); assay: ExpresSProfile: delta2 opioid receptor, agonist radioligand; assay type: binding; settings: Test Concentration 1.0E−05 M
[3] = read-out: % Inhibition of Control Specific Binding
[4] = read-out: % of Control Specific Binding 1st
[5] = read-out: % of Control Specific Binding 2nd
[6] = read-out: % of Control Specific Binding Mean

MT1 (ML1A) (h), sequence (P48039 whole entry): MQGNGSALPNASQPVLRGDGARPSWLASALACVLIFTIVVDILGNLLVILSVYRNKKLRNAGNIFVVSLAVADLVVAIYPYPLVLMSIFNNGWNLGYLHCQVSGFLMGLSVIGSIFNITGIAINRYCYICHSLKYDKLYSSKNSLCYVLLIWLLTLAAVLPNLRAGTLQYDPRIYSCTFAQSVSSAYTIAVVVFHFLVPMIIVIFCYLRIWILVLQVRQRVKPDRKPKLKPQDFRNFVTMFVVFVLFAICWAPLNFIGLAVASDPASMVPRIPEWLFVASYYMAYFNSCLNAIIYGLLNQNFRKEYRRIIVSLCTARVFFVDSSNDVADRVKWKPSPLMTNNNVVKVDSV
M3 (h), sequence (P20309 whole entry): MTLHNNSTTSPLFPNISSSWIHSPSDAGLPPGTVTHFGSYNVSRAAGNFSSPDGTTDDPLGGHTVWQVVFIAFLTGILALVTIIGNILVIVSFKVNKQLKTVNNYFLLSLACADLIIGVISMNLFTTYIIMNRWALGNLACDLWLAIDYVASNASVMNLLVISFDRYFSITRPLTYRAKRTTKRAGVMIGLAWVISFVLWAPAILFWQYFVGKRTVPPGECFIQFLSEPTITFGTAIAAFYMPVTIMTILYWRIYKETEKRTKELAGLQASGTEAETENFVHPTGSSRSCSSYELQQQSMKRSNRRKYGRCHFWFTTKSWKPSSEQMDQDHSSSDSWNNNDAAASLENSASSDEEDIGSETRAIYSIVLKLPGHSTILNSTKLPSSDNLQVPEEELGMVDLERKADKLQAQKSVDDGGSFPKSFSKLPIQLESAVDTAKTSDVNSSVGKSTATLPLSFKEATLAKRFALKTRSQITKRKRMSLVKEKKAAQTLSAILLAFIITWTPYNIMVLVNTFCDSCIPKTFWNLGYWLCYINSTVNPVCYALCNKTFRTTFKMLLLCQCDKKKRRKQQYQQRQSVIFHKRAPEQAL
ETA (h), sequence (P25101 21-427): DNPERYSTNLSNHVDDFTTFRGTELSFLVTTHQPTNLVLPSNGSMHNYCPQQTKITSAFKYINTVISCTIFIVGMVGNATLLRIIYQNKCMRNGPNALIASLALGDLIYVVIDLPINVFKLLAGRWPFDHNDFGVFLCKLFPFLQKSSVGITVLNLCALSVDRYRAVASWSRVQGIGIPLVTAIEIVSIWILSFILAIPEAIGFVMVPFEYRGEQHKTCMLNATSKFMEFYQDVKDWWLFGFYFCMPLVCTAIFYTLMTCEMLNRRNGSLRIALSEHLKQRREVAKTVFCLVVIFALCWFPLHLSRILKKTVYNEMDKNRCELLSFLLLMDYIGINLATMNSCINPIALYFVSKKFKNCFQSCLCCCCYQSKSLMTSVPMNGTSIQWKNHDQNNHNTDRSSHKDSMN
beta 2 (h), sequence (P07550 whole entry): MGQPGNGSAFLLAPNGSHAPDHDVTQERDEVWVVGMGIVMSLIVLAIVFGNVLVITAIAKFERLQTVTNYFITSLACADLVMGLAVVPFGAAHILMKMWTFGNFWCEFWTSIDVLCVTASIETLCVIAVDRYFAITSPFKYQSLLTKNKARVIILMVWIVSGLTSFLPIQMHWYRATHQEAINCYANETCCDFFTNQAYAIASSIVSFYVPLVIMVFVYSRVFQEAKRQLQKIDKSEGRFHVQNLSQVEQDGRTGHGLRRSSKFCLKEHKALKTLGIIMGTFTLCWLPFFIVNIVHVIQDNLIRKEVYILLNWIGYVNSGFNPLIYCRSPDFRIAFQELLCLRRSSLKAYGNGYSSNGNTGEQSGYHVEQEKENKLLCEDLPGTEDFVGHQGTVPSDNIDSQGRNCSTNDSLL
5-HT2A (h), sequence (P28223 whole entry): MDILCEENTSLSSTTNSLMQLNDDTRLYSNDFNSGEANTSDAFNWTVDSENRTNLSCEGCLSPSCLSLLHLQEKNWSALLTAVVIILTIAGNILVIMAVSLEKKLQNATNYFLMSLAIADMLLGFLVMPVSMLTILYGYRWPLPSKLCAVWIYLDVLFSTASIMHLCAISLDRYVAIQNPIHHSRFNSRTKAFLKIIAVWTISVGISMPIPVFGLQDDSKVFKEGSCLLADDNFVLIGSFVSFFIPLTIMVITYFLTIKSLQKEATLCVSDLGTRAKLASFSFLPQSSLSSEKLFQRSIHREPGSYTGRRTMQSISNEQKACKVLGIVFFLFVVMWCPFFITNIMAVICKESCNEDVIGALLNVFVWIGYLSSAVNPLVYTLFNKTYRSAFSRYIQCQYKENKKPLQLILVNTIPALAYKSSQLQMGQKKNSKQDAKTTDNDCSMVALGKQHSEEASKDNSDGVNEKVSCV
VPAC1 (VIP1) (h), sequence (P32241 31-457): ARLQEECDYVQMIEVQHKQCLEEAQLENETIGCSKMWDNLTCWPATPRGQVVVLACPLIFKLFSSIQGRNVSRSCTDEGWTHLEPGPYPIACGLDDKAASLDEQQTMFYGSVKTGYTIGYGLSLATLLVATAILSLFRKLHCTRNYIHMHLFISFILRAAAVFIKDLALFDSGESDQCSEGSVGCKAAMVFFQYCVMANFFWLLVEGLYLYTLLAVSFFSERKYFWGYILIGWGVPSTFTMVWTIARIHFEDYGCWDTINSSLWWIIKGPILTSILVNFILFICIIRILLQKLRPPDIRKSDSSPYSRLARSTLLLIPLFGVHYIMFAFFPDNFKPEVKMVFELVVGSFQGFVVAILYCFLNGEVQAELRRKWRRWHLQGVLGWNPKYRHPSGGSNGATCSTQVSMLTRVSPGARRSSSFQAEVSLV
CCK1 (CCKA) (h), sequence (P32238 whole entry): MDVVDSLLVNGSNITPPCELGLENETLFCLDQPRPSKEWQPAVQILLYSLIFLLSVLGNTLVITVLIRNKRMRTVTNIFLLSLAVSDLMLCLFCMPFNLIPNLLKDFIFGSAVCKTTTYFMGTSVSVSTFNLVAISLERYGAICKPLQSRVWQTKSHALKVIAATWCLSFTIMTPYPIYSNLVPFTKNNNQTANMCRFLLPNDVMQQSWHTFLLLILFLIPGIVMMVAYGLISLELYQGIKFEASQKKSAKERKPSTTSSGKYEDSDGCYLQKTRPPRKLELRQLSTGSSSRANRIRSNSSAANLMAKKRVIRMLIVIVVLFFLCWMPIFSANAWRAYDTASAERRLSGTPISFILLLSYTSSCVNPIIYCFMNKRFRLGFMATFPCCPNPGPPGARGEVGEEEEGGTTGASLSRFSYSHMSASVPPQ
delta 2 (DOP) (h), sequence (P41143 whole entry): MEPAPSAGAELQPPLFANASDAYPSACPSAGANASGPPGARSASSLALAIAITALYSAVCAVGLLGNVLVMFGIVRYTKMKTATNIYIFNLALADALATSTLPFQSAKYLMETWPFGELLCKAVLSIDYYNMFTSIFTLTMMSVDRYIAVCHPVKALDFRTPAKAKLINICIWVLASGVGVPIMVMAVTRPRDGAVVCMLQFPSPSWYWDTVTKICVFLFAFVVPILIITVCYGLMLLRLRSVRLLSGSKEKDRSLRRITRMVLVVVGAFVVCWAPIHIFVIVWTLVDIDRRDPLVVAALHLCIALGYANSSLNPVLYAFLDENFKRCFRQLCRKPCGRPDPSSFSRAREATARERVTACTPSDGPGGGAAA
H1 (h), sequence (P35367 whole entry): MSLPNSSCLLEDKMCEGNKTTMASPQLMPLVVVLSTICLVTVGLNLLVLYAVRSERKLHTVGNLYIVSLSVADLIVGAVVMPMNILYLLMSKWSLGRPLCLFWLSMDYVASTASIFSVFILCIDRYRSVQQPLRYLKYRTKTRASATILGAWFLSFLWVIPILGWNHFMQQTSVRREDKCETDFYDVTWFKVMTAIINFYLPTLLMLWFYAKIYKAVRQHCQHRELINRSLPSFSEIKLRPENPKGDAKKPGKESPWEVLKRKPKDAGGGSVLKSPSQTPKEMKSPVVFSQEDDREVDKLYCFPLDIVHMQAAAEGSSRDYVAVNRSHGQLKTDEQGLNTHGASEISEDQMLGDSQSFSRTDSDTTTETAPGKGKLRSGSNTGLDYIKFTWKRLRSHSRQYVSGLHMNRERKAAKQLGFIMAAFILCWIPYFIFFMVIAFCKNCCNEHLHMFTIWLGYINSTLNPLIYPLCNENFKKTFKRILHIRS
D2S (h), sequence (P14416 other isoform, or with tags, fused parts or gaps): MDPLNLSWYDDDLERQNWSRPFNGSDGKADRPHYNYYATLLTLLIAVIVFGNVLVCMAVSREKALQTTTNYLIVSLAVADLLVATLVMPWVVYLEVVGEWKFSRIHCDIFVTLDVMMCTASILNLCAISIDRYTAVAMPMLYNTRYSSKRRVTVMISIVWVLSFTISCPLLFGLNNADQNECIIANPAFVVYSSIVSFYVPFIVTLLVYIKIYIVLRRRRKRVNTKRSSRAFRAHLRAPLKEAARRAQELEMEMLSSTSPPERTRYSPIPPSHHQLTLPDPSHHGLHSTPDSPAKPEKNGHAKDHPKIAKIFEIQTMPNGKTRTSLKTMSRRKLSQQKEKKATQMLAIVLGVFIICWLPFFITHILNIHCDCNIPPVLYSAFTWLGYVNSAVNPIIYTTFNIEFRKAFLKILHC
EP4 (h), sequence (P35408 whole entry): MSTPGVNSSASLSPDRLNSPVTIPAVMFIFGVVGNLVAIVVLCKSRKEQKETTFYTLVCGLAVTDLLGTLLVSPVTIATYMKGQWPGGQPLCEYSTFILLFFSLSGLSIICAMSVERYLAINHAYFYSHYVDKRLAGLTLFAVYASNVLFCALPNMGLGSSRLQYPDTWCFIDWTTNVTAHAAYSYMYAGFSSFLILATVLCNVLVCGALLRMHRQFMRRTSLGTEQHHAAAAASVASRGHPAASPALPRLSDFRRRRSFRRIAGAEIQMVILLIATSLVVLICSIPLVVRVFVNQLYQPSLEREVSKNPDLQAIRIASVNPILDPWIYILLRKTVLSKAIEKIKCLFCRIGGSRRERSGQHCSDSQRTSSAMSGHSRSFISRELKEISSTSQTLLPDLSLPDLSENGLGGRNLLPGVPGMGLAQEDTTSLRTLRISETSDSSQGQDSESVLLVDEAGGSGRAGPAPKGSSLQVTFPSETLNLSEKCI

## COc1cccc(OC)c1-c1cc(C(=O)NC2(C(=O)O)C3CC4CC(C3)CC2C4)nn1-c1ccc(C(=O)N(C)CCCN(C)CCCN(C)C(=O)CN2CCN(CC(=O)O)CCN(CC(=O)O)CCN(CC(=O)O)CC2)cc1C(C)C (stereo not shown) [(IIIa), 2-{[1-{4-[(3-{[3-(DOTA-methyl-amino)-propyl]-methyl-amino}-propyl)-methyl-carbamoyl]-2-isopropyl-phenyl}-5-(2,6-dimethoxy-phenyl)-1H-pyrazole-3-carbonyl]-amino}-adamantane-2-carboxylic acid]
MT1 (ML1A) (h); [3]
  inhibition at 10 µM: 1%
MT1 (ML1A) (h); [4]
  remaining activity at 10 µM: 103%
MT1 (ML1A) (h); [5]
  remaining activity at 10 µM: 95.9%
MT1 (ML1A) (h); [6]
  remaining activity at 10 µM: 99.3%
ETA (h); [3]
  inhibition at 10 µM: -10%
ETA (h); [4]
  remaining activity at 10 µM: 114%
ETA (h); [5]
  remaining activity at 10 µM: 105%
ETA (h); [6]
  remaining activity at 10 µM: 110%
H1 (h); [3]
  inhibition at 10 µM: -12%
H1 (h); [4]
  remaining activity at 10 µM: 121%
H1 (h); [5]
  remaining activity at 10 µM: 103%
H1 (h); [6]
  remaining activity at 10 µM: 112%
M3 (h); [3]
  inhibition at 10 µM: -23%
M3 (h); [4]
  remaining activity at 10 µM: 122%
M3 (h); [5]
  remaining activity at 10 µM: 124%
M3 (h); [6]
  remaining activity at 10 µM: 124%
Beta 2 (h); [3]
  inhibition at 10 µM: -2%
Beta 2 (h); [4]
  remaining activity at 10 µM: 107%
Beta 2 (h); [5]
  remaining activity at 10 µM: 96.5%
Beta 2 (h); [6]
  remaining activity at 10 µM: 102%
Cl-channel (GABA-gated)
  % Inhibition of Control Specific Binding: 2%
  % of Control Specific Binding 1st: 106.5%
  % of Control Specific Binding 2nd: 89.1%
  % of Control Specific Binding Mean: 97.8%
VPAC1 (VIP1) (h); [3]
  inhibition at 10 µM: -6%
VPAC1 (VIP1) (h); [4]
  remaining activity at 10 µM: 104%
VPAC1 (VIP1) (h); [5]
  remaining activity at 10 µM: 107%
VPAC1 (VIP1) (h); [6]
  remaining activity at 10 µM: 106%
EP4 (h); [3]
  inhibition at 10 µM: 8%
EP4 (h); [4]
  remaining activity at 10 µM: 89.2%
EP4 (h); [5]
  remaining activity at 10 µM: 95.5%
EP4 (h); [6]
  remaining activity at 10 µM: 92.3%
MC4 (h); [3]
  inhibition at 10 µM: -8%
MC4 (h); [4]
  remaining activity at 10 µM: 113%
MC4 (h); [5]
  remaining activity at 10 µM: 104%
MC4 (h); [6]
  remaining activity at 10 µM: 108%
CCK1 (CCKA) (h); [3]
  inhibition at 10 µM: -18%
CCK1 (CCKA) (h); [4]
  remaining activity at 10 µM: 102%
CCK1 (CCKA) (h); [5]
  remaining activity at 10 µM: 135%
CCK1 (CCKA) (h); [6]
  remaining activity at 10 µM: 118%
Beta 1 (h); [3]
  inhibition at 10 µM: 2%
Beta 1 (h); [4]
  remaining activity at 10 µM: 89.9%
Beta 1 (h); [5]
  remaining activity at 10 µM: 106%
Beta 1 (h); [6]
  remaining activity at 10 µM: 98%
NK3 (h); [3]
  inhibition at 10 µM: -1%
NK3 (h); [4]
  remaining activity at 10 µM: 102%
NK3 (h); [5]
  remaining activity at 10 µM: 98.5%
NK3 (h); [6]
  remaining activity at 10 µM: 100%
5-HT2A (h); [3]
  inhibition at 10 µM: -2%
5-HT2A (h); [4]
  remaining activity at 10 µM: 101%
5-HT2A (h); [5]
  remaining activity at 10 µM: 103%
5-HT2A (h); [6]
  remaining activity at 10 µM: 102%
D2S (h); [3]
  inhibition at 10 µM: -9%
D2S (h); [4]
  remaining activity at 10 µM: 113%
D2S (h); [5]
  remaining activity at 10 µM: 105%
D2S (h); [6]
  remaining activity at 10 µM: 109%
[1]
  fraction unbound at 4 h: 0.01
Alpha 1 (non-selective)
  % Inhibition of Control Specific Binding: −9%
  % of Control Specific Binding 1st: 106.2%
  % of Control Specific Binding 2nd: 111.1%
  % of Control Specific Binding Mean: 108.7%
[2]
  specificity: highly specific
M1 (h); [3]
  inhibition at 10 µM: -25%
M1 (h); [4]
  remaining activity at 10 µM: 111%
M1 (h); [5]
  remaining activity at 10 µM: 138%
M1 (h); [6]
  remaining activity at 10 µM: 125%
Delta 2 (DOP) (h); [3]
  inhibition at 10 µM: -6%
Delta 2 (DOP) (h); [4]
  remaining activity at 10 µM: 107%
Delta 2 (DOP) (h); [5]
  remaining activity at 10 µM: 105%
Delta 2 (DOP) (h); [6]
  remaining activity at 10 µM: 106%
